For 47 compounds, IC50 and EC50 results are on record in patent publication US12357631B2 (priority 2018, dated 2025).

Targets include PB2 CDlp7007 H3N2 (Influenza A virus, UniProt P31345); PB2 (Influenza A virus, UniProt P03428); PB2 CDlp7026 H1N1 (Influenza A virus, UniProt P03428); PB2 CDlp7028 H3N2 (Influenza A virus, UniProt P31345).
Holding throughout (experiment): biochemical
Common to all, as to format: binding

Chain of PB2 (P03428 whole entry, looked up): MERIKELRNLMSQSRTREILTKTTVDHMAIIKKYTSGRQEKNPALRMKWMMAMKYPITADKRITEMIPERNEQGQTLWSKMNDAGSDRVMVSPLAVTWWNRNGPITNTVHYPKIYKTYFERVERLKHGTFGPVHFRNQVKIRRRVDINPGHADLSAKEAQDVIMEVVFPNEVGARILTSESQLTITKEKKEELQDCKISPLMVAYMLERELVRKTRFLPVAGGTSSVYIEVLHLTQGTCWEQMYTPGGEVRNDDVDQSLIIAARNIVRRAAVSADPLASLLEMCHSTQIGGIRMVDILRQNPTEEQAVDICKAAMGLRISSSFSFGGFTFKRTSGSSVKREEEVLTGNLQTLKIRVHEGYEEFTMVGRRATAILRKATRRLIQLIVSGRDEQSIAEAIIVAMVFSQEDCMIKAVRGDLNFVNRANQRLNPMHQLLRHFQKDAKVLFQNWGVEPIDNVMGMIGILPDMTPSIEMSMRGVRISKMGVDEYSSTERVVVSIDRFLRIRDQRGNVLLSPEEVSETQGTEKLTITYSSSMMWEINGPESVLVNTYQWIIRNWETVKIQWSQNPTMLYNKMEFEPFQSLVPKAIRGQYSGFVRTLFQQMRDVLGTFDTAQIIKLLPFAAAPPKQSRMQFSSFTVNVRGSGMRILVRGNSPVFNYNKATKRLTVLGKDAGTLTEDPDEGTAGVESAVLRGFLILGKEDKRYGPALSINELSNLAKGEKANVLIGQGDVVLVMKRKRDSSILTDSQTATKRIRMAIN
Chain of PB2 CDlp7028 H3N2 (P31345 whole entry, looked up): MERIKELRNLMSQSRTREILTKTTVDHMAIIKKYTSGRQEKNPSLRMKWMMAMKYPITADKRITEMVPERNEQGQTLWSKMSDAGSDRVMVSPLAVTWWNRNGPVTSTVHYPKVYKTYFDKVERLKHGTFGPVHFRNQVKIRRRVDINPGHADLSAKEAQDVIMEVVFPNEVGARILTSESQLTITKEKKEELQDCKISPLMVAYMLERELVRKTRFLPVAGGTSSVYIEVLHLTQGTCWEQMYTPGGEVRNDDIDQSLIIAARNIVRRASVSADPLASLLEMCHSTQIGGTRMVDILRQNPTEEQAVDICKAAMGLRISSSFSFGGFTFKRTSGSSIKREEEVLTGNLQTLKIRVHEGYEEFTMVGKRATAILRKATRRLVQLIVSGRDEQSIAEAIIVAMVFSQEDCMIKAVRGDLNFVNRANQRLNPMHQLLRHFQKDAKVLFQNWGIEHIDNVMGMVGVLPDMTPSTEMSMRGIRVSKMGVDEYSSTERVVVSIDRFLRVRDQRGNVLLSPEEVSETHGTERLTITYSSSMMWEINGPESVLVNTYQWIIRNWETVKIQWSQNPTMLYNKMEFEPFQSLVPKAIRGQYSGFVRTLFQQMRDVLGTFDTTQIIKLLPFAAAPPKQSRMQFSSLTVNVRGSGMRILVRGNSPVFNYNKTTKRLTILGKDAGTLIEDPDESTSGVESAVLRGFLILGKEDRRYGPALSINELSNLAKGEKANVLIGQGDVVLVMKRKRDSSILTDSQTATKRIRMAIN
Chain of PB2 CDlp7007 H3N2 (P31345 whole entry, looked up): as above
Chain of PB2 CDlp7026 H1N1 (P03428 whole entry, looked up): as the sequence (P03428 whole entry, looked up) above

As to `CCNC(=O)OCc1ccnc(C(=O)N[C@@H]2CCC[C@H](Nc3nc(-c4c[nH]c5ncc(F)cc45)ncc3F)C2)c1` [Compound A70], the IC50 (usually the midpoint of a concentration-inhibition curve) was 5 to 25 µM against PB2 CDlp7007 H3N2, 5 to 25 µM at PB2 CDlp7026 H1N1 and below 5 µM against PB2 CDlp7028 H3N2. Besides, on PB2, the EC50 (as a rule, the midpoint of the concentration-response curve) was below 5 µM. In the case of `CCOCCOCCOCCNC(=O)N[C@@H]1CCC[C@H](Nc2nc(-c3c[nH]c4ncc(F)cc34)ncc2F)C1` [Compound A164], the IC50 on PB2 CDlp7007 H3N2 was in the range of 25 to 50 µM. Further, at PB2, the EC50 was 25 to 50 µM. For `CCOCCOCCOCCN(C)C(=O)N[C@@H]1CCC[C@H](Nc2nc(-c3c[nH]c4ncc(F)cc34)ncc2F)C1` [Compound A165], the IC50 on PB2 CDlp7007 H3N2 and against PB2 CDlp7028 H3N2 was 50 to 100 µM each time. Turning to `CCOCCOCCCCCN(C)C(=O)N[C@@H]1CCC[C@H](Nc2nc(-c3c[nH]c4ncc(F)cc34)ncc2F)C1` [Compound A181], the IC50 against PB2 CDlp7007 H3N2 is 50 to 100 µM; against PB2 CDlp7028 H3N2, 25 to 50 µM. Regarding `CCOC1CCCCC1OCCCCCN(C)C(=O)N[C@H]1CCC[C@@H](Nc2nc(-c3c[nH]c4ncc(F)cc34)ncc2F)C1` (stereo partly drawn) [Compound A245], the EC50 at PB2 is above 100 µM. On the same count and under the same terms, as for `CCC(CC)OCCOCCCCCN(C)C(=O)N[C@H]1CCC[C@@H](Nc2nc(-c3c[nH]c4ncc(F)cc34)ncc2F)C1` [Compound A246], the figure is above 100 µM; as for `CCOCCOCCCCCN(C(=O)N[C@@H]1CCC[C@H](Nc2nc(-c3c[nH]c4ncc(Cl)cc34)ncc2F)C1)C(C)C` [Compound A248], above 100 µM; as for `CCOCCOCCCCCN(C(=O)N[C@@H]1CCC[C@H](Nc2nc(-c3c[nH]c4ncc(Cl)cc34)ncc2Cl)C1)C(C)C` [Compound A249], above 100 µM. Same read-out and setting: then `CCOCCOCCCCCN(C(=O)N[C@H]1CCC[C@@H](Nc2nc(-c3c[nH]c4ncc(F)cc34)ncc2Cl)C1)C(C)C` [Compound A250], with above 100 µM. In the case of `CCOCCOCCOCC(=O)N[C@@H]1CCC[C@H](Nc2nc(-c3c[nH]c4ncc(F)cc34)ncc2F)C1` [Compound A263], at PB2 CDlp7007 H3N2, the IC50 is 25 to 50 µM. Moreover, the EC50 at PB2 was 25 to 50 µM.

As to `CCOCCOCCOCCNC(=O)N[C@@H]1CCC[C@H](Nc2nc(-c3c[nH]c4ncc(F)cc34)ncc2F)C1` [Compound A264], the EC50 at PB2 was above 100 µM. Take `O=C(COCCOCCOCCO)N[C@@H]1CCC[C@H](Nc2nc(-c3c[nH]c4ncc(F)cc34)ncc2F)C1` [Compound A265]: the EC50 at PB2 fell in the range of 5 to 25 µM.

On to `CCOCCOCCOCCS(=O)(=O)N[C@@H]1CCC[C@H](Nc2nc(-c3c[nH]c4ncc(F)cc34)ncc2F)C1` [Compound A266], for which the EC50 at PB2 is 5 to 25 µM.

Turning to `NCCOCCOCCOCC(=O)N[C@@H]1CCC[C@H](Nc2nc(-c3c[nH]c4ncc(F)cc34)ncc2F)C1` [Compound A267], on PB2, the EC50 was 25 to 50 µM. The same measure, in the same setting: then `O=C(O)CCOCCOCCOCC(=O)N[C@H]1CCC[C@@H](Nc2nc(-c3c[nH]c4ncc(F)cc34)ncc2F)C1` [Compound A268], with below 5 µM.

The compound `O=C(O)COCCOCCOCCC(=O)N[C@H]1CCC[C@@H](Nc2nc(-c3c[nH]c4ncc(F)cc34)ncc2F)C1` [Compound A269] registered an EC50 at PB2 of 5 to 25 µM. For `CCOCCOCCCCC(=O)N[C@@H]1CCC[C@H](Nc2nc(-c3c[nH]c4ncc(F)cc34)ncc2F)C1` [Compound A270], the concentration for half-maximal inhibition (IC50) on PB2 CDlp7007 H3N2 and against PB2 CDlp7028 H3N2 was above 100 µM in each case.

The compound `CCCCCCCCCCC(=O)N[C@@H]1CCC[C@H](Nc2nc(-c3c[nH]c4ncc(F)cc34)ncc2F)C1` [Compound A271] came in with a concentration giving a half-maximal response (EC50) at PB2 of 50 to 100 µM.

Regarding `CCCCCOCCOCC(=O)N[C@@H]1CCC[C@H](Nc2nc(-c3c[nH]c4ncc(F)cc34)ncc2F)C1` [Compound A272], the EC50 at PB2 lay in the range of 50 to 100 µM. On the same count and under the same terms, then `CCOCCOc1cccc(CC(=O)N[C@@H]2CCC[C@H](Nc3nc(-c4c[nH]c5ncc(F)cc45)ncc3F)C2)c1` [Compound A273], with 50 to 100 µM; and `CCOCCCCCOCC(=O)N[C@@H]1CCC[C@H](Nc2nc(-c3c[nH]c4ncc(F)cc34)ncc2F)C1` [Compound A274], with above 100 µM. `CCOCc1cccc(COCC(=O)N[C@@H]2CCC[C@H](Nc3nc(-c4c[nH]c5ncc(F)cc45)ncc3F)C2)c1` [Compound A275] came in with an EC50 on PB2 above 100 µM.

Take `CCCCCOCCOCC(=O)N[C@H]1CCC[C@@H](Nc2nc(-c3c[nH]c4ncc(F)cc34)ncc2F)C1` [Compound A277]: at PB2, the EC50 was above 100 µM. Same read-out and setting: then `CCOCCOc1cccc(CC(=O)N[C@H]2CCC[C@@H](Nc3nc(-c4c[nH]c5ncc(F)cc45)ncc3F)C2)c1` [Compound A279], with above 100 µM; and `CCOCCOCCCCCOC(=O)N[C@@H]1CCC[C@H](Nc2nc(-c3c[nH]c4ncc(F)cc34)ncc2F)C1` [Compound A281], with above 100 µM.

On PB2, `COC(=O)N[C@H]1CCC[C@@H](Nc2nc(-c3c[nH]c4ncc(F)cc34)ncc2F)C1` [Compound A286] returned an EC50 of 25 to 50 µM. Still for that read-out and setting: as for `CCOCCOCCCc1ccnc(C(=O)N[C@H]2CCC[C@@H](Nc3nc(-c4c[nH]c5ncc(F)cc45)ncc3F)C2)c1` [Compound A288], the figure is 5 to 25 µM; as for `CCOCCOCCOCCNC(=O)N(Cc1ccccc1)[C@@H]1CCC[C@H](Nc2nc(-c3c[nH]c4ncc(F)cc34)ncc2F)C1` [Compound B1], above 100 µM; as for `CCOCCOCCOCCNC(=O)N(CCc1ccccc1)[C@@H]1CCC[C@H](Nc2nc(-c3c[nH]c4ncc(F)cc34)ncc2F)C1` [Compound B2], 50 to 100 µM. On the same count and under the same terms, as for `CCOCCOCCOCCNC(=O)N(CCCc1ccccc1)[C@@H]1CCC[C@H](Nc2nc(-c3c[nH]c4ncc(F)cc34)ncc2F)C1` [Compound B3], the figure is 50 to 100 µM; as for `CCOCCOCCOCCNC(=O)N(CCOCCOCC)[C@@H]1CCC[C@H](Nc2nc(-c3c[nH]c4ncc(F)cc34)ncc2F)C1` [Compound B4], above 100 µM; as for `CCOCCOCCOCCNC(=O)N(CCOCc1ccccc1)[C@@H]1CCC[C@H](Nc2nc(-c3c[nH]c4ncc(F)cc34)ncc2F)C1` [Compound B5], above 100 µM. The same measure, in the same setting: as for `CCOCCOCCOCCN(C(=O)N(C)C)[C@@H]1CCC[C@H](Nc2nc(-c3c[nH]c4ncc(F)cc34)ncc2F)C1` [Compound B6], the figure is above 100 µM. The compound `CCOCCOCCCCCN(CC(=O)N(C)C)C(=O)N[C@@H]1CCC[C@H](Nc2nc(-c3c[nH]c4ncc(F)cc34)ncc2F)C1` [Compound B7] registered an EC50 on PB2 of 25 to 50 µM. `O=C(COCCOCCOCCO)N1CCC[C@H](Nc2nc(-c3c[nH]c4ncc(F)cc34)ncc2F)C1` [Compound C1]: the IC50 at PB2 CDlp7007 H3N2 and on PB2 CDlp7028 H3N2 was 5 to 25 µM each time. `CCOCCOCCOCC(=O)N1CCC[C@H](Nc2nc(-c3c[nH]c4ncc(F)cc34)ncc2F)C1` [Compound C2]: the IC50 against PB2 CDlp7007 H3N2 and on PB2 CDlp7028 H3N2 was 5 to 25 µM throughout.

In the case of `NCCOCCOCCOCC(=O)N1CCC[C@H](Nc2nc(-c3c[nH]c4ncc(F)cc34)ncc2F)C1` [Compound C4], at PB2, the EC50 fell in the range of 5 to 25 µM. `O=C(O)CCC(=O)N1CCC[C@H](Nc2nc(-c3c[nH]c4ncc(F)cc34)ncc2F)C1` [Compound C5]: the EC50 on PB2 is below 5 µM. On the same count and under the same terms, as for `CCOC(=O)CCOCCOCCOCC(=O)N1CCC[C@@H](Nc2nc(-c3c[nH]c4ncc(F)cc34)ncc2F)C1` [Compound C6], the figure is 5 to 25 µM; as for `O=C(O)CCCN1CCC[C@H](Nc2nc(-c3c[nH]c4ncc(F)cc34)ncc2F)C1` [Compound C7], 5 to 25 µM; as for `CCOCCOCCCCCN(C)C(=O)N1CCC(CNc2nc(-c3c[nH]c4ncc(F)cc34)ncc2F)C1` (stereo not drawn) [Compound C8], above 100 µM. `CCOCCOCCCCCN(C)C(=O)N1CCC(C(=O)Nc2nc(-c3c[nH]c4ncc(F)cc34)ncc2F)C1` (stereo not drawn) [Compound C9] displayed an EC50 on PB2 above 100 µM. As for `O=C(O)CC(=O)N1CCC[C@H](Nc2nc(-c3c[nH]c4ncc(F)cc34)ncc2F)C1` [Compound C10], the half-maximal effective concentration (EC50) on PB2 was below 5 µM. `CCOC(=O)CN1CCC[C@H](Nc2nc(-c3c[nH]c4ncc(F)cc34)ncc2F)C1` [Compound C11] gave an EC50 at PB2 of 25 to 50 µM. The same measure, in the same setting: as for `O=C(O)CN1CCC[C@H](Nc2nc(-c3c[nH]c4ncc(F)cc34)ncc2F)C1` [Compound C12], the figure is 5 to 25 µM; as for `O=C(O)CCN1CCC[C@H](Nc2nc(-c3c[nH]c4ncc(F)cc34)ncc2F)C1` [Compound C13], 5 to 25 µM.

`CCOC(=O)CCN1CCC[C@@H](Nc2nc(-c3c[nH]c4ncc(F)cc34)ncc2F)C1` [Compound C14] gave an EC50 at PB2 of 5 to 25 µM.
